# Measurements reported in patent publication US20040058310A1 (priority 2002, published 2004).
# Like-named read-outs stand apart in the source and are kept apart here.
# Columns and labels:
# [1] = test system: human polymorphonuclear cells
# [2] = test system: human polymorphonuclear cells; remark: listed apart in the source
# [3] = biological target: nicotinic acetylcholine receptors; conditions: cited from earlier work
# PMN nicotinic receptors [4] = test: saturation of specific [125I]-α-bungarotoxin binding to smokers' polymorphonuclear leukocytes; set-up: species or system human
# Protocol: FIG. 1: Saturation of specific [^3H]-epibatidine (A) and [^125I]-α-bungarotoxin (B) binding to human polymorphonuclear cells. Insets, Scatchard analyses of specific binding of [^3H]-epibatidine and [^125I]-α-bungarotoxin (1 pM to 10 nM). […] Data are the mean± standard error of three experiments.
# Saturation studies were conducted with increasing concentrations of [^3H]-epibatidine (1 pM-10 nM) and [^125I]-α-bungarotoxin (1 pM-10 nM). […] Following the binding reactions, bound and free ligands were separated by rapid vacuum filtration through Whatman GF/B fiberglass filters (Polylabo) treated with ice-cold buffer (KH2PO4 5 mM, Na2HPO4 20 mM, NaCl 100 mM, pH 7.4) containing 0.1% milk. The filters were rinsed three times with 5 ml of the same ice-cold buffer and placed in vials with 4 ml of Picofluor 30 scintillation liquid (Packard Instrument). The radioactivity was determined by liquid scintillation counting.
# Smokers' polymorphonuclear leukocytes (n=3) were used to investigate saturation experiments.
# PMN nicotinic receptors [5] = test: [125I]-α-bungarotoxin binding sites in PMN of smokers and non-smokers; set-up: species or system human
# Protocol: (§1) FIG. 2: [^3H]-epibatidine (A) and [^125I]-α-bungarotoxin (B) binding sites in human polymorphonuclear cells isolated from smokers (n=90 and 60, respectively) and non-smokers (n=50). Binding levels were measured at 10 nM of [^3H]-epibatidine and [^125I]-α-bungarotoxin. Nonspecific binding was determined in the presence of 1 μM or 100 μM of nicotine, respectively.
# (§2) Human polymorphonuclear leukocytes were isolated according to a slightly modified version of the method described by Cabanis (Cabanis, Gressier et al. 1994). Briefly, 20 ml of fresh heparinized blood were diluted with an equal amount of phosphate-buffered saline (PBS) 0.1 M, pH 7.4, and placed above 10 ml of Histopaque-1077. After centrifugation at 400 g for 30 min, the pellet was resuspended in 40 ml of cold isotonic ammonium chloride solution (NH4Cl 0.15 M, NaHCO3 10 mM). Following 20 min at 4° C., the cell suspension was centrifuged at 160 g for 10 minutes, and the white pellets were washed twice in 10 ml of Hank's buffer. The protein content was measured using the method developed by Lowry et al. (Lowry et al. 1951).
# Binding assays were performed on intact purified PMN. Cellular protein (100 μg) was incubated with 10 nM [^3H]-epibatidine for 30 min. or with [^125I]-α-bungarotoxin for 60 min at 25° C. in a volume of 100 μl. […]
# [6] = in vivo; cited from earlier work
# PMN nicotinic receptors [7] = test: [3H]-epibatidine binding sites in PMN of smokers and non-smokers; set-up: species or system human
# Protocol: as §1, §2
# (§3) Binding assays were performed on intact purified PMN. Cellular protein (100 μg) was incubated with 10 nM [^3H]-epibatidine for 30 min. or with [^125I]-α-bungarotoxin for 60 min at 25° C. in a volume of 100 μl. Specific binding was defined as the difference between total binding and binding in the presence of 1 μM or 100 μM nicotine, performed in triplicate.
# Nicotinic receptor binding sites in PMN were investigated from 90 smokers and 50 non-smokers. Participating smokers were recruited from the Centre de Tabacologie, Hôpital A. Chenevier, Créteil.
# [8] = hot plate assay; cited from earlier work
# PMN nicotinic receptors [9] = test: saturation of specific [3H]-epibatidine binding to smokers' polymorphonuclear leukocytes; set-up: species or system human
# Protocol: Insets, Scatchard analyses of specific binding of [^3H]-epibatidine and [^125I]-α-bungarotoxin (1 pM to 10 nM). Nonspecific binding was determined in the presence of 1 μM or 100 μM of nicotine respectively. Data are the mean± standard error of three experiments.
# as §2, §3
# Saturation studies were conducted with increasing concentrations of [^3H]-epibatidine (1 pM-10 nM) and [^125I]-α-bungarotoxin (1 pM-10 nM). Specific binding was defined as the difference between total binding and binding in the presence of 1 μM or 100 μM nicotine, respectively, performed in triplicate. Following the binding reactions, bound and free ligands were separated by rapid vacuum filtration through Whatman GF/B fiberglass filters (Polylabo) treated with ice-cold buffer (KH2PO4 5 mM, Na2HPO4 20 mM, NaCl 100 mM, pH 7.4) containing 0.1% milk. The filters were rinsed three times with 5 ml of the same ice-cold buffer and placed in vials with 4 ml of Picofluor 30 scintillation liquid (Packard Instrument). The radioactivity was determined by liquid scintillation counting.
# Binding experiments were investigated in smokers' polymorphonuclear leukocyte cells in presence of various concentrations of [^3H]-epibatidine ranging from 0.1 nM to 25 nM.
# For each experiment, the mean values of RCR or percentages were compared in a one-way analysis of variance and a Dunneft test. EC50 was calculated by non-linear regression fit of effect-concentration (C) curve to the equation: E=(Emax×C)/(C+EC50), where Emax and EC50 are the maximal efficiency and the concentration producing 50% effect respectively, using commercially available software (Micropharm®) (Urien 1995). Data from binding experiments were analysed by means of non-linear regression with commercially available software (Micropharm®) (Urien 1995).
# melanoma X63-Ag8 cells = test: total epibatidine-binding sites in X63-Ag8 cells; conditions: mean and standard error of three independent experiments
# Excerpt: (§4) The presence of nAChRs in B lymphocytes was further confirmed by studying the [^3H]-epibatidine and [^125I]-α-bungarotoxin binding. Epibatidine is a potent agonist of heteromeric nAChRs, while -α-bungarotoxin (α-Bgt) binds to both muscle-type nAChRs and homomeric neuronal-type of nAChRs. In addition, epibatidine penetrates inside the cell and binds both surface and intracellular receptors, while α-Bgt, when tested at ice-cold temperature, binds only surface-expressed receptors. Normal B lymphocytes and […] X63-Ag8 cells contained almost equal amounts of total epibatidine-binding sites per cell (12,220±3,200 and 10,170±1,100, respectively, means and standard error of three independent experiments).
# opioid receptor = conditions: cited from earlier work
# Normal B lymphocytes = test: total epibatidine-binding sites in B lymphocytes; conditions: mean and standard error of three independent experiments
# Excerpt: as §4
# Protocol for α3, α4 and β2 subunits: Total RNA was isolated from smokers and non-smokers (TRIZOL, Gibco). First strand cDNA synthesis reactions were performed after annealing 5 μg of total RNA with 100 ng random hexamers (70° C. for 10 minutes) by incubation at 42° C. for 50 minutes. Polymerase chain reactions were carried out in a 20 μl reaction volume containing 1 μl cDNA product, 250 ng of both forward and reverse primers (Table 1), 5 units of Taq polymerase then cycled 30 times at 95° C. for 1 minute, 55° C. for 1 minute and 72° C. for 2 minutes. The amplified DNA products were analysed by agarose gel electrophoresis and stained with ethidium bromide. The PCR products were transferred from the gel to Hybond-N^+ membranes (Amersham) and hybridised with a ^32P-end-labelled oligoprobe (Table 1). Southern blot hybridizations were performed overnight at 42° C. in hybridisation buffer (5×SSC, 1× Denhardt's, 20 mM sodium phosphate buffer pH 6.5, 0.1% SDS, 100 μg/ml tRNA). The Southern blots were washed for 1 hour at room temperature in 2×SSC and 1% SDS, then exposed to X-ray film (Kodak Biomax) overnight with an intensifying screen.
compound,measurement,setting,value
CN1CCCC1c1cccnc1 (stereo not shown) [nicotine],change in the binding of [125I]-α-bungarotoxin to PMN,[1],no change
same,Bmax of [3H]-epibatidine binding sites after nicotine,[2],34.66±6.25 fmol/mg protein
same,formation of [3H]-epibatidine binding sites,[2],induced the formation
same,increase of the number of [3H]-epibatidine binding sites,[2],2.67 fold
same,number of [3H]-epibatidine binding sites after nicotine,[2],29.19±10.28 fmol/mg protein
same,Ki,[3],1010 pM
same,nAChR subunit expression after ex-vivo nicotine exposure,"α3, α4 and β2 subunits","induced expression of α3, α4 and β2 subunits"
Cc1cc([C@H]2C[C@@H]3CC[C@H]2N3)on1 [epiboxidine],Ki,[3]; nAChR,600 pM
[^125I]-α-bungarotoxin,Bmax,PMN nicotinic receptors [4],189.46±126.27 fmol/mg proteins
same,nH (Scatchard plot linearity),PMN nicotinic receptors [4],1.08±0.06
same,Kd,PMN nicotinic receptors [4]; read-out: apparent Kd,2770 ± 1540 pM
same,PMN tested that demonstrated binding sites,PMN nicotinic receptors [5],Approximately 30%
same,binding sites in smokers compared with non-smokers,PMN nicotinic receptors [5],No difference
"Clc1ccc(C2CC3CCC2N3)cn1 (stereo not drawn) [epibatidine, exo-2(6-chloro-3-pyridyl)-7-azabicyclo[2.2.1]-heptane]",eliciting the Straub-tail response compared with morphine,[6],approximately 500 fold that of morphine
same,binding sites in non-smokers' PMN,"PMN nicotinic receptors [7]; 50 non-smokers, listed as [^3H]-epibatidine",not present and None
same,smokers with detected binding sites,PMN nicotinic receptors [7]; 90 smokers,82%
same,total number of binding sites in smokers,"PMN nicotinic receptors [7]; PMN of smokers, 10 nM radioligand",40.65±4.89 fmol/mg protein
same,analgesic effect compared with morphine,[8],approximately 200 times higher than morphine
same,Hill coefficient,PMN nicotinic receptors [9]; biphasic Scatchard plot,0.76
same,"Bmax1, high affinity site",PMN nicotinic receptors [9]; first site,46.97±5.64 fmol/mg protein
same,"share of the total binding sites, high affinity site",PMN nicotinic receptors [9]; first site,86.86%
same,Kd,"PMN nicotinic receptors [9]; first site, read-out: Kd2, high affinity site",2110 ± 430 pM
same,"Bmax1, very high affinity site",PMN nicotinic receptors [9]; second site,7.73±0.64 fmol/mg protein
same,"share of the total binding sites, very high affinity site",PMN nicotinic receptors [9]; second site,14.14%
same,Kd,"PMN nicotinic receptors [9]; second site, read-out: Kd1, very high affinity site",56.3 ± 27.8 pM
same,total epibatidine-binding sites per cell,melanoma X63-Ag8 cells,"10,170±1,100 sites per cell"
same,Ki,"[3]; nAChR, restated in pM",~55 pM
same,Ki,[3]; nAChR,43 to 55 pM
same,affinity for the opioid receptor,opioid receptor,1/8000
same,total epibatidine-binding sites per cell,Normal B lymphocytes,"12,220±3,200 sites per cell"
CNC1(C)C2CCC(C2)C1(C)C (stereo not shown) [mecamylamine],blockade of epibatidine binding to nicotinic acetylcholine receptors,[3]; noncompetitive nicotinic antagonist,can be blocked
